Measured values as given in patent US5292733A, “Cephalosporin compounds” (Lucky Limited, priority 1991, dated 1994).
≈ marks a conversion by molar mass, not a printed value. Where two headings read alike, the source gives them in different places.

Tests used:
Assay in all cases: Antibacterial activity MIC, two-fold agar dilution
Type in all cases: cell-based
[1] = test system: Micrococcus luteus ATCC 9341; details: read-out: Antibacterial Activity MIC
How it was run: (§1)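 Inoculum: 2 μl, 10^7 CFU per ml. Medium: Muller-Hinton agar containing compound in two-fold serial dilutions. Conditions: 37° C., 20 hours; endpoint MIC.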

[2] = test system: Staphylococcus epidermidis ATCC 12228; details: read-out: Antibacterial Activity MIC
How it was run: as §1

[3] = test system: Acinetobacter calcoaceticus ATCC 15473; details: read-out: Antibacterial Activity MIC
How it was run: as §1

[4] = test system: Enterobacter aerogenes ATCC 29751; details: Klebsiella aerogenes, read-out: Antibacterial Activity MIC
How it was run: as §1

[5] = test system: Proteus mirabilis ATCC 25933; details: read-out: Antibacterial Activity MIC
How it was run: as §1

[6] = test system: Proteus vulgaris ATCC 6059; details: read-out: Antibacterial Activity MIC
How it was run: as §1

[7] = test system: Providencia rettgeri ATCC 9250; details: ATCC9250, Muller-Hinton agar, 37° C., 20 hours
How it was run: as §1

[8] = test system: Shigella flexneri ATCC 11836; details: ATCC11836, Muller-Hinton agar, 37° C., 20 hours
How it was run: as §1

[9] = test system: Citrobacter freundii ATCC 8090; details: read-out: Antibacterial Activity MIC
How it was run: as §1

[10] = test system: Salmonella typhimurium ATCC 14028; details: Salmonella enterica, read-out: Antibacterial Activity MIC
How it was run: as §1

[11] = test system: Bacillus megaterium ATCC 9885; details: Priestia megaterium, read-out: Antibacterial Activity MIC
How it was run: as §1

[12] = test system: Escherichia coli ATCC 25922; details: ATCC25922, Muller-Hinton agar, 37° C., 20 hours
How it was run: as §1

[13] = test system: Pseudomonas aeruginosa ATCC 10145; details: read-out: Antibacterial Activity MIC
How it was run: as §1

[14] = test system: Morganella morganii ATCC 8076h; details: ATCC8076H, Muller-Hinton agar, 37° C., 20 hours
How it was run: as §1

[15] = test system: Serratia marcescens ATCC 27117; details: read-out: Antibacterial Activity MIC
How it was run: as §1

[16] = test system: Staphylococcus aureus ATCC 6538p; details: ATCC6538P, read-out: Antibacterial Activity MIC
How it was run: as §1

[17] = test system: Staphylococcus aureus ATCC 10537; details: read-out: Antibacterial Activity MIC
How it was run: as §1

[18] = test system: Shigella sonnei ATCC 11060; details: ATCC11060, Muller-Hinton agar, 37° C., 20 hours
How it was run: as §1

[19] = test system: Klebsiella pneumoniae ATCC 10031; details: read-out: Antibacterial Activity MIC
How it was run: as §1

[20] = test system: Streptococcus faecalis ATCC 29212; details: Enterococcus faecalis, read-out: Antibacterial Activity MIC
How it was run: as §1

[21] = test system: Pseudomonas aeruginosa ATCC 25619; details: read-out: Antibacterial Activity MIC
How it was run: as §1

[22] = test system: Bacillus cereus ATCC 11778; details: read-out: Antibacterial Activity MIC
How it was run: as §1

[23] = test system: Escherichia coli ATCC 10536; details: ATCC10536, Muller-Hinton agar, 37° C., 20 hours
How it was run: as §1

[24] = test system: Pseudomonas aeruginosa ATCC 27853; details: read-out: Antibacterial Activity MIC
How it was run: as §1

[25] = test system: Enterobacter cloacae ATCC 27508; details: read-out: Antibacterial Activity MIC
How it was run: as §1

[26] = ATCC9341, Micrococcus luteus ATCC 9341, Muller-Hinton agar, 37° C., 20 hours
[27] = ATCC12228, Staphylococcus epidermidis ATCC 12228, Muller-Hinton agar, 37° C., 20 hours
[28] = ATCC15473, Acinetobacter calcoaceticus ATCC 15473, Muller-Hinton agar, 37° C., 20 hours
[29] = ATCC29751, Enterobacter aerogenes ATCC 29751, Muller-Hinton agar, 37° C., 20 hours
[30] = ATCC25933, Proteus mirabilis ATCC 25933, Muller-Hinton agar, 37° C., 20 hours
[31] = ATCC6059, Proteus vulgaris ATCC 6059, Muller-Hinton agar, 37° C., 20 hours
[32] = ATCC8090, Citrobacter freundii ATCC 8090, Muller-Hinton agar, 37° C., 20 hours
[33] = Salmonella typhimurium ATCC 14028, Muller-Hinton agar, 37° C., 20 hours
[34] = ATCC9885, Bacillus megaterium ATCC 9885, Muller-Hinton agar, 37° C., 20 hours
[35] = ATCC10145, Pseudomonas aeruginosa ATCC 10145, Muller-Hinton agar, 37° C., 20 hours
[36] = ATCC27117, Serratia marcescens ATCC 27117, Muller-Hinton agar, 37° C., 20 hours
[37] = Staphylococcus aureus ATCC 6538p, Muller-Hinton agar, 37° C., 20 hours
[38] = ATCC10537, Staphylococcus aureus ATCC 10537, Muller-Hinton agar, 37° C., 20 hours
[39] = ATCC10031, Klebsiella pneumoniae ATCC 10031, Muller-Hinton agar, 37° C., 20 hours
[40] = ATCC29212, Streptococcus faecalis ATCC 29212, Muller-Hinton agar, 37° C., 20 hours
[41] = ATCC25619, Pseudomonas aeruginosa ATCC 25619, Muller-Hinton agar, 37° C., 20 hours
[42] = ATCC11778, Bacillus cereus ATCC 11778, Muller-Hinton agar, 37° C., 20 hours
[43] = ATCC27853, Pseudomonas aeruginosa ATCC 27853, Muller-Hinton agar, 37° C., 20 hours
[44] = ATCC27508, Enterobacter cloacae ATCC 27508, Muller-Hinton agar, 37° C., 20 hours

| Structure (SMILES) | MIC [7] [µg/mL] | MIC [8] [µg/mL] | MIC [12] [µg/mL] | MIC [14] [µg/mL] | MIC [18] [µg/mL] | MIC [23] [µg/mL] | MIC [1, 26] [µg/mL] | MIC [2, 27] [µg/mL] | MIC [3, 28] [µg/mL] | MIC [4, 29] [µg/mL] | MIC [5, 30] [µg/mL] | MIC [6, 31] [µg/mL] | MIC [9, 32] [µg/mL] | MIC [10, 33] [µg/mL] | MIC [11, 34] [µg/mL] | MIC [13, 35] [µg/mL] | MIC [15, 36] [µg/mL] | MIC [16, 37] [µg/mL] | MIC [17, 38] [µg/mL] | MIC [19, 39] [µg/mL] | further results |
| --- | --- | --- | --- | --- | --- | --- | --- | --- | --- | --- | --- | --- | --- | --- | --- | --- | --- | --- | --- | --- | --- |
| CC(C)(O/N=C(\C(=O)N[C@@H]1C(=O)N2C(C(=O)[O-])=C(C[n+]3ccccc3)CS[C@H]12)c1csc(N)n1)C(=O)O [Ceftazidime, reference compound] | ≤ 0.008 | 0.063 (≈ 0.115 µM) | 0.13 (≈ 0.238 µM) | 0.016 (≈ 0.0293 µM) | 0.063 (≈ 0.115 µM) | 0.13 (≈ 0.238 µM) |  |  |  |  |  |  |  |  |  |  |  |  |  |  | MIC ([1]; Micrococcus luteus, ATCC9341, 20 h): 1 µg/mL (≈ 1.83 µM); MIC ([2]; Staphylococcus epidermidis, ATCC12228, 20 h): 8 µg/mL (≈ 14.6 µM); MIC ([3]; Acinetobacter calcoaceticus, ATCC15473, 20 h): 4 µg/mL (≈ 7.32 µM); MIC ([4]; ATCC29751, 20 h): 4 µg/mL (≈ 7.32 µM); MIC ([5]; Proteus mirabilis, ATCC25933, 20 h): 0.063 µg/mL (≈ 0.115 µM); MIC ([6]; Proteus vulgaris, ATCC6059, 20 h): 0.063 µg/mL (≈ 0.115 µM); MIC ([9]; Citrobacter freundii, ATCC8090, 20 h): 1 µg/mL (≈ 1.83 µM); MIC ([10]; 20 h): 0.25 µg/mL (≈ 0.457 µM); MIC ([11]; ATCC9885, 20 h): 0.25 µg/mL (≈ 0.457 µM); MIC ([13]; Pseudomonas aeruginosa, ATCC10145, 20 h): 2 µg/mL (≈ 3.66 µM); MIC ([15]; Serratia marcescens, ATCC27117, 20 h): 0.13 µg/mL (≈ 0.238 µM); MIC ([16]; Staphylococcus aureus, 20 h): 16 µg/mL (≈ 29.3 µM); MIC ([17]; Staphylococcus aureus, ATCC10537, 20 h): 8 µg/mL (≈ 14.6 µM); MIC ([19]; Klebsiella pneumoniae, ATCC10031, 20 h): 0.13 µg/mL (≈ 0.238 µM); MIC ([20]; ATCC29212, 20 h): > 128 µg/mL; MIC ([21]; Pseudomonas aeruginosa, ATCC25619, 20 h): 1 µg/mL (≈ 1.83 µM); MIC ([22]; Bacillus cereus, ATCC11778, 20 h): 128 µg/mL (≈ 234 µM); MIC ([24]; Pseudomonas aeruginosa, ATCC27853, 20 h): 1 µg/mL (≈ 1.83 µM); MIC ([25]; Enterobacter cloacae, ATCC27508, 20 h): 0.063 µg/mL (≈ 0.115 µM) |
| CC[n+]1c(N)cc(SCC2=C(C(=O)[O-])N3C(=O)[C@@H](NC(=O)/C(=N\OC(C)C(=O)O)c4csc(N)n4)[C@H]3SC2)nc1N (stereo partly drawn) [Compound I-20, (6R,7R)-7-[(Z)-2-(2-aminothiazol-4-yl)-2-(R,S-carboxyeth-1-oxyimino)acetamido]-3-(2,6-diamino-1-ethylprimidinium-4-yl)thiomethyl-3cephem-4-carboxylate] | ≤ 0.008 | 0.016 (≈ 0.0257 µM) | 0.13 (≈ 0.208 µM) | ≤ 0.008 | 0.5 (≈ 0.802 µM) | 0.13 (≈ 0.208 µM) | 0.25 (≈ 0.401 µM) | 4 (≈ 6.41 µM) | 8 (≈ 12.8 µM) | 1 (≈ 1.6 µM) | 0.063 (≈ 0.101 µM) | 0.25 (≈ 0.401 µM) | 0.13 (≈ 0.208 µM) | 0.5 (≈ 0.802 µM) | 0.25 (≈ 0.401 µM) | 4 (≈ 6.41 µM) | 0.25 (≈ 0.401 µM) | 2 (≈ 3.21 µM) | 4 (≈ 6.41 µM) | 0.063 (≈ 0.101 µM) | MIC [20, 40]: 128 µg/mL (≈ 205 µM); MIC [21, 41]: 1 µg/mL (≈ 1.6 µM); MIC [22, 42]: 128 µg/mL (≈ 205 µM); MIC [24, 43]: 2 µg/mL (≈ 3.21 µM); MIC [25, 44]: 0.016 µg/mL (≈ 0.0257 µM) |
| CC(O/N=C(\C(=O)N[C@@H]1C(=O)N2C(C(=O)[O-])=C(CSc3cc(N)nc(N)[n+]3C)CS[C@H]12)c1csc(N)n1)C(=O)O (stereo partly drawn) [Compound I-3, (6R,7R)-7-[(Z)-2-(2-aminothiazol-4-yl)-2-(R,S-carboxyeth-1-oxyimino)acetamido]-3-(2,6-diamino-3-methylpyrimidinium-4-yl)thiomethyl-3-cephem-4-carboxylate] | ≤ 0.008 | 0.031 (≈ 0.0508 µM) | 0.13 (≈ 0.213 µM) | ≤ 0.008 | 0.25 (≈ 0.41 µM) | 0.13 (≈ 0.213 µM) | 0.5 (≈ 0.82 µM) | 2 (≈ 3.28 µM) | 2 (≈ 3.28 µM) | 2 (≈ 3.28 µM) | 0.31 (≈ 0.508 µM) | 0.063 (≈ 0.103 µM) | 0.13 (≈ 0.213 µM) | 0.5 (≈ 0.82 µM) | 0.25 (≈ 0.41 µM) | 1 (≈ 1.64 µM) | 0.13 (≈ 0.213 µM) | 4 (≈ 6.56 µM) | 4 (≈ 6.56 µM) | 0.031 (≈ 0.0508 µM) | MIC [20, 40]: > 128 µg/mL; MIC [21, 41]: 1 µg/mL (≈ 1.64 µM); MIC [22, 42]: 64 µg/mL (≈ 105 µM); MIC [24, 43]: 1 µg/mL (≈ 1.64 µM); MIC [25, 44]: 0.016 µg/mL (≈ 0.0262 µM) |
| CO/N=C(\C(=O)N[C@@H]1C(=O)N2C(C(=O)[O-])=C(CSc3cc(N)[n+](C)c(N)n3)CS[C@H]12)c1csc(N)n1 [Compound I-21, (6R,7R)-7-[(Z)-2-(2-aminothiazol-4-yl)-2-(methoxyimino)acetamido]-3-(2,6-diamino-1-methylpyrimidinium-4-yl)thiomethyl-3-cephem-4-carboxylate] | ≤ 0.008 | 0.016 (≈ 0.029 µM) | 0.063 (≈ 0.114 µM) | ≤ 0.008 | 0.13 (≈ 0.236 µM) | 0.063 (≈ 0.114 µM) | 0.063 (≈ 0.114 µM) | 0.25 (≈ 0.453 µM) | 8 (≈ 14.5 µM) | 0.25 (≈ 0.453 µM) | 0.5 (≈ 0.906 µM) | 0.5 (≈ 0.906 µM) | 0.031 (≈ 0.0562 µM) | 0.13 (≈ 0.236 µM) | 0.13 (≈ 0.236 µM) | 16 (≈ 29 µM) | 0.25 (≈ 0.453 µM) | 0.5 (≈ 0.906 µM) | 0.5 (≈ 0.906 µM) | ≤ 0.008 | MIC [20, 40]: 32 µg/mL (≈ 58 µM); MIC [21, 41]: 1 µg/mL (≈ 1.81 µM); MIC [22, 42]: 128 µg/mL (≈ 232 µM); MIC [24, 43]: 2 µg/mL (≈ 3.63 µM); MIC [25, 44]: ≤ 0.008 µg/mL |
